Drawing on ChEMBL document CHEMBL1914295, “Synthesis and biological evaluation of some novel triazol-3-ones as antimicrobial agents” (2011), this text covers zone of inhibition for 13 compounds.

What all share (assay type): functional
Holding throughout (details): read-out: IZ

Test [1] relates to Staphylococcus aureus. Kind of test: Antibacterial activity against Staphylococcus aureus at 200 ug/ml after 24 hrs by disc diffusion method.
Test [2] concerns Bacillus subtilis. Kind of test: Antibacterial activity against Bacillus subtilis at 100 ug/ml after 24 hrs by disc diffusion method. On the technique in general: A growth-free zone around the sample is the usual read-out of agar diffusion tests.
Test [3] has as its system Staphylococcus aureus. The test is described as follows: Antibacterial activity against Staphylococcus aureus at 100 ug/ml after 24 hrs by disc diffusion method.
Test [4] concerns Bacillus subtilis. Kind of test: Antibacterial activity against Bacillus subtilis at 200 ug/ml after 24 hrs by disc diffusion method.
For test [5], the system named is Escherichia coli. Kind of test: Antibacterial activity against Escherichia coli at 100 ug/ml after 24 hrs by disc diffusion method.
In test [6] the test system is Escherichia coli. Kind of test: Antibacterial activity against Escherichia coli at 200 ug/ml after 24 hrs by disc diffusion method.
In test [7] the test system is Klebsiella pneumoniae. Kind of test: Antibacterial activity against Klebsiella pneumoniae at 100 ug/ml after 24 hrs by disc diffusion method.
For test [8], the system named is Klebsiella pneumoniae. Kind of test: Antibacterial activity against Klebsiella pneumoniae at 200 ug/ml after 24 hrs by disc diffusion method.
The subject of test [9] is Fusarium solani. The test is described as follows: Antifungal activity against Fusarium solani at 100 ug/ml after 48 hrs by disc diffusion method.
In test [10] the test system is Fusarium solani. The test is described as follows: Antifungal activity against Fusarium solani at 200 ug/ml after 48 hrs by disc diffusion method.
For test [11], the system named is Aspergillus niger. The test is described as follows: Antifungal activity against Aspergillus niger at 100 ug/ml after 48 hrs by disc diffusion method.
For test [12], the system named is Aspergillus niger. Kind of test: Antifungal activity against Aspergillus niger at 200 ug/ml after 48 hrs by disc diffusion method.
For test [13], the system named is Candida albicans. Kind of test: Antifungal activity against Candida albicans at 100 ug/ml after 48 hrs by disc diffusion method.
Test [14] relates to Candida albicans. Kind of test: Antifungal activity against Candida albicans at 200 ug/ml after 48 hrs by disc diffusion method.

Regarding `CC1Sc2sccc2-c2nc(-n3cn[nH]c3=O)sc21` (stereo not drawn), the zone of inhibition at 200 µg/mL with Staphylococcus aureus [1] was 21 mm; with Bacillus subtilis [4] it was 23 mm; in the test on Escherichia coli [6], 20 mm; in the test with Klebsiella pneumoniae [8] it was 20 mm; with Fusarium solani [10], 24 mm; in the test with Aspergillus niger [12], 29 mm. Further, the zone of inhibition at 200 µg/mL in the test with Candida albicans [14] was 28 mm. In addition, the zone of inhibition at 100 µg/mL with Bacillus subtilis [2] was 20 mm; in the test on Staphylococcus aureus [3], 18 mm; in the test with Escherichia coli [5] it was 15 mm; in the test on Klebsiella pneumoniae [7], 17 mm; with Fusarium solani [9] it was 22 mm; with Aspergillus niger [11] it was 26 mm. The zone of inhibition at 100 µg/mL in the test with Candida albicans [13] was determined as 25 mm.

As for `O=C(N[C@H](CO)[C@H](O)c1ccc([N+](=O)[O-])cc1)C(Cl)Cl` [CHLORAMPHENICOL], the zone of inhibition at 200 µg/mL in the test with Staphylococcus aureus [1] is 39 mm; with Bacillus subtilis [4] it was 41 mm; in the test with Escherichia coli [6], 44 mm; with Klebsiella pneumoniae [8], 45 mm. Besides, the zone of inhibition at 100 µg/mL in the test on Bacillus subtilis [2] worked out at 38 mm; in the test with Staphylococcus aureus [3], 35 mm; in the test with Escherichia coli [5] it was 40 mm; in the test with Klebsiella pneumoniae [7] it was 42 mm.

On to `COCCCn1ncn(-c2nc(-c3ccsc3)cs2)c1=O`, for which the zone of inhibition at 200 µg/mL with Staphylococcus aureus [1] worked out at 26 mm; in the test with Bacillus subtilis [4] it was 26 mm; with Escherichia coli [6], 28 mm; with Klebsiella pneumoniae [8], 28 mm; in the test on Fusarium solani [10], 36 mm; in the test with Aspergillus niger [12], 28 mm. Also, in the test on Candida albicans [14], the zone of inhibition at 200 µg/mL was 28 mm. Also, the zone of inhibition at 100 µg/mL with Bacillus subtilis [2] came out at 23 mm; in the test with Staphylococcus aureus [3], 24 mm; in the test with Escherichia coli [5] it was 24 mm; with Klebsiella pneumoniae [7], 25 mm; with Fusarium solani [9] it was 34 mm; in the test with Aspergillus niger [11], 26 mm. Further, the zone of inhibition at 100 µg/mL in the test on Candida albicans [13] was found to be 24 mm.

`N#CCn1ncn(-c2nc(-c3ccsc3)cs2)c1=O`: the zone of inhibition at 200 µg/mL stood at 31 mm in the test with Staphylococcus aureus [1]; 26 mm in the test on Bacillus subtilis [4]; 29 mm in the test with Escherichia coli [6]; 21 mm with Klebsiella pneumoniae [8]; 34 mm in the test with Fusarium solani [10]; 29 mm in the test with Aspergillus niger [12]. The zone of inhibition at 200 µg/mL with Candida albicans [14] came out at 32 mm. In addition, the zone of inhibition at 100 µg/mL with Bacillus subtilis [2] was determined as 23 mm; with Staphylococcus aureus [3], 28 mm; in the test with Escherichia coli [5] it was 26 mm; in the test with Klebsiella pneumoniae [7] it was 16 mm; in the test on Fusarium solani [9] it was 28 mm; in the test on Aspergillus niger [11] it was 27 mm. In the test on Candida albicans [13], the zone of inhibition at 100 µg/mL worked out at 28 mm.

With `CC1Sc2sccc2-c2nc(-n3cnn(C(C)C)c3=O)sc21` (stereo not drawn), the zone of inhibition at 200 µg/mL in the test with Staphylococcus aureus [1] stood at 16 mm; in the test on Bacillus subtilis [4], 15 mm; in the test on Escherichia coli [6], 18 mm; with Klebsiella pneumoniae [8], 16 mm; in the test on Fusarium solani [10], 19 mm; with Aspergillus niger [12] it was 22 mm. Besides, the zone of inhibition at 200 µg/mL in the test on Candida albicans [14] was determined as 21 mm. The zone of inhibition at 100 µg/mL stood at 13 mm in the test with Bacillus subtilis [2]; 14 mm with Staphylococcus aureus [3]; 15 mm in the test with Escherichia coli [5]; 14 mm in the test on Klebsiella pneumoniae [7]; 17 mm with Fusarium solani [9]; 17 mm in the test with Aspergillus niger [11]. The zone of inhibition at 100 µg/mL with Candida albicans [13] is 16 mm.

`CC1Sc2sccc2-c2nc(-n3cnn(CC#N)c3=O)sc21` (stereo not drawn): the zone of inhibition at 200 µg/mL was found to be 17 mm with Staphylococcus aureus [1]; 18 mm with Bacillus subtilis [4]; 13 mm in the test with Escherichia coli [6]; 14 mm in the test with Klebsiella pneumoniae [8]; 18 mm in the test on Fusarium solani [10]; 19 mm with Aspergillus niger [12]. The zone of inhibition at 200 µg/mL in the test with Candida albicans [14] stood at 18 mm. For the same compound, the zone of inhibition at 100 µg/mL in the test with Bacillus subtilis [2] turned out to be 15 mm; in the test on Staphylococcus aureus [3], 13 mm; in the test on Escherichia coli [5], 11 mm; in the test on Klebsiella pneumoniae [7], 11 mm; in the test with Fusarium solani [9] it was 15 mm; in the test on Aspergillus niger [11], 16 mm. Besides, the zone of inhibition at 100 µg/mL in the test on Candida albicans [13] came out at 14 mm.

For the compound `CC1Sc2sccc2-c2nc(-n3cnn(C)c3=O)sc21` (stereo not drawn), the zone of inhibition at 200 µg/mL in the test on Staphylococcus aureus [1] was found to be 16 mm; in the test on Bacillus subtilis [4], 19 mm; in the test on Escherichia coli [6], 21 mm; in the test on Klebsiella pneumoniae [8], 19 mm; in the test with Fusarium solani [10], 26 mm; in the test on Aspergillus niger [12] it was 23 mm. Besides, the zone of inhibition at 200 µg/mL in the test with Candida albicans [14] was determined as 24 mm. The zone of inhibition at 100 µg/mL was 16 mm with Bacillus subtilis [2]; 14 mm in the test with Staphylococcus aureus [3]; 18 mm in the test with Escherichia coli [5]; 16 mm in the test with Klebsiella pneumoniae [7]; 24 mm with Fusarium solani [9]; 20 mm in the test on Aspergillus niger [11]. In the test on Candida albicans [13], the zone of inhibition at 100 µg/mL came out at 22 mm.

As to `Cn1ncn(-c2nc(-c3ccsc3)cs2)c1=O`, the zone of inhibition at 200 µg/mL in the test with Staphylococcus aureus [1] came to 35 mm; in the test on Bacillus subtilis [4], 36 mm; in the test with Escherichia coli [6], 25 mm; in the test on Klebsiella pneumoniae [8], 28 mm; with Fusarium solani [10], 43 mm; with Aspergillus niger [12], 42 mm. The zone of inhibition at 200 µg/mL in the test on Candida albicans [14] was 40 mm. The zone of inhibition at 100 µg/mL worked out at 34 mm in the test with Bacillus subtilis [2]; 32 mm in the test on Staphylococcus aureus [3]; 23 mm in the test on Escherichia coli [5]; 26 mm in the test with Klebsiella pneumoniae [7]; 40 mm in the test on Fusarium solani [9]; 39 mm in the test on Aspergillus niger [11]. Further, the zone of inhibition at 100 µg/mL in the test with Candida albicans [13] was 36 mm.

For the compound `COCCCn1ncn(-c2nc3c(s2)C(C)Sc2sccc2-3)c1=O` (stereo not drawn), the zone of inhibition at 200 µg/mL in the test on Staphylococcus aureus [1] is 28 mm; in the test on Bacillus subtilis [4], 33 mm; with Escherichia coli [6], 25 mm; in the test with Klebsiella pneumoniae [8], 24 mm; in the test on Fusarium solani [10] it was 44 mm; in the test on Aspergillus niger [12], 41 mm. Besides, in the test with Candida albicans [14], the zone of inhibition at 200 µg/mL was determined as 39 mm. In addition, the zone of inhibition at 100 µg/mL was found to be 31 mm in the test with Bacillus subtilis [2]; 23 mm in the test on Staphylococcus aureus [3]; 22 mm in the test on Escherichia coli [5]; 21 mm in the test on Klebsiella pneumoniae [7]; 39 mm with Fusarium solani [9]; 37 mm in the test with Aspergillus niger [11]. For the same compound, the zone of inhibition at 100 µg/mL in the test with Candida albicans [13] was 36 mm.

In the case of `CC(C)Cn1ncn(-c2nc(-c3ccsc3)cs2)c1=O`, the zone of inhibition at 200 µg/mL came out at 20 mm in the test with Staphylococcus aureus [1]; 18 mm in the test on Bacillus subtilis [4]; 21 mm with Escherichia coli [6]; 18 mm with Klebsiella pneumoniae [8]; 30 mm with Fusarium solani [10]; 27 mm with Aspergillus niger [12]. Further, the zone of inhibition at 200 µg/mL with Candida albicans [14] was 21 mm. The zone of inhibition at 100 µg/mL in the test on Bacillus subtilis [2] turned out to be 16 mm; in the test with Staphylococcus aureus [3], 16 mm; in the test on Escherichia coli [5], 17 mm; with Klebsiella pneumoniae [7], 15 mm; in the test with Fusarium solani [9], 26 mm; in the test on Aspergillus niger [11], 26 mm. Moreover, the zone of inhibition at 100 µg/mL in the test on Candida albicans [13] worked out at 17 mm.

With `CCn1ncn(-c2nc(-c3ccsc3)cs2)c1=O`, the zone of inhibition at 200 µg/mL in the test on Staphylococcus aureus [1] was 32 mm; with Bacillus subtilis [4], 27 mm; in the test with Escherichia coli [6] it was 29 mm; in the test on Klebsiella pneumoniae [8], 28 mm; in the test on Fusarium solani [10] it was 32 mm; in the test on Aspergillus niger [12], 24 mm. Besides, the zone of inhibition at 200 µg/mL in the test on Candida albicans [14] worked out at 29 mm. Also, the zone of inhibition at 100 µg/mL came out at 21 mm with Bacillus subtilis [2]; 24 mm with Staphylococcus aureus [3]; 23 mm with Escherichia coli [5]; 26 mm with Klebsiella pneumoniae [7]; 29 mm in the test on Fusarium solani [9]; 21 mm in the test with Aspergillus niger [11]. Also, the zone of inhibition at 100 µg/mL in the test with Candida albicans [13] came out at 23 mm.

`CC(=O)N1CCN(c2ccc(OCC3COC(Cn4ccnc4)(c4ccc(Cl)cc4Cl)O3)cc2)CC1` (stereo not drawn) [KETOCONAZOLE]: the results for the zone of inhibition at 100 µg/mL with Fusarium solani [9], in the test with Aspergillus niger [11] and in the test on Candida albicans [13] were 38 mm, 41 mm and 36 mm, respectively. The zone of inhibition at 200 µg/mL was determined as 42 mm in the test with Fusarium solani [10], 44 mm in the test on Aspergillus niger [12] and 39 mm with Candida albicans [14].

In the case of `CCn1ncn(-c2nc3c(s2)C(C)Sc2sccc2-3)c1=O` (stereo not drawn), the zone of inhibition at 200 µg/mL with Staphylococcus aureus [1] is 29 mm; in the test on Bacillus subtilis [4] it was 31 mm; in the test on Escherichia coli [6], 27 mm; in the test with Klebsiella pneumoniae [8], 26 mm; in the test on Fusarium solani [10] it was 31 mm; in the test with Aspergillus niger [12], 26 mm. Also, the zone of inhibition at 200 µg/mL in the test on Candida albicans [14] stood at 29 mm. The zone of inhibition at 100 µg/mL turned out to be 28 mm in the test with Bacillus subtilis [2]; 25 mm in the test on Staphylococcus aureus [3]; 22 mm in the test with Escherichia coli [5]; 24 mm with Klebsiella pneumoniae [7]; 28 mm in the test on Fusarium solani [9]; 23 mm in the test with Aspergillus niger [11]. Also, in the test with Candida albicans [13], the zone of inhibition at 100 µg/mL was found to be 26 mm.
